ChEMBL document CHEMBL1140851, “Synthesis of new amonafide analogues via coupling reaction and their cytotoxic evaluation and DNA-binding studies” (Bioorg Med Chem, 2009)
The source made the active and inactive calls. The rule behind the calls is not given here.

Assays:
[1] = Cytotoxicity against mouse P388D1 cells after 48 hrs by MTT assay; format: functional, cell-based; conditions: P388D1, 48 h
HeLa = assay: Cytotoxicity against human HeLa cells after 48 hrs by MTT assay; format: functional, cell-based
DNA [2] = assay: Binding affinity to calf thymus DNA assessed as Scatchard binding constant by fluorescence quenching technique; format: nucleic-acid assay; conditions: Bos taurus
DNA [3] = assay: Binding affinity to calf thymus DNA assessed as hypochromicity at 50 uM by UV-vis absorption spectra; format: nucleic-acid assay; conditions: Bos taurus
DNA [4] = assay: Binding affinity to calf thymus DNA assessed as increase in viscosity of DNA by viscometric titration; format: nucleic-acid assay; conditions: Bos taurus
DNA [5] = assay: Binding affinity to calf thymus DNA assessed as circular dichroism at 10 uM; format: nucleic-acid assay; conditions: Bos taurus

| Kb (DNA [2]) | Activity (DNA [3]) | Activity (DNA [4]) | Activity (DNA [5]) | Structure (SMILES) | IC50 [1] | IC50 (HeLa) |
| --- | --- | --- | --- | --- | --- | --- |
| 1.75 ×10⁵ /M | – | – | – | CN(C)CCCNc1cc2c3c(cccc3c1)C(=O)N(CCN(C)C)C2=O | 0.71 µM | 0.23 µM |
| 1.23 ×10⁵ /M | – | – | – | CCCCNc1cc2c3c(cccc3c1)C(=O)N(CCN(C)C)C2=O | 9.42 µM | 3.24 µM |
| 1.85 ×10⁵ /M | Active | Active | Active | CN(C)CCNc1cc2c3c(cccc3c1)C(=O)N(CCN(C)C)C2=O | 0.62 µM | 0.83 µM |
| 0.79 ×10⁵ /M | – | – | – | CN(C)CCN1C(=O)c2cccc3cc(N4CCSCC4)cc(c23)C1=O | 36.3 µM | 2.34 µM |
| 0.97 ×10⁵ /M | – | – | – | CN(C)CCN1C(=O)c2cccc3cc(N4CCOCC4)cc(c23)C1=O | 9.44 µM | 0.53 µM |
| 1.06 ×10⁵ /M | – | – | – | CN(C)CCN1C(=O)c2cccc3cc(NCc4cccs4)cc(c23)C1=O | 9.46 µM | 3.54 µM |
| 0.85 ×10⁵ /M | – | – | – | CN(C)CCN1C(=O)c2cccc3cc(N4CCCCC4)cc(c23)C1=O | 21.6 µM | 2.64 µM |
| 2.48 ×10⁵ /M | Active | Active | Active | CN(C)CCN1C(=O)c2cccc3cc(N4CCN(C)CC4)cc(c23)C1=O | 1.93 µM | 0.43 µM |

| Structure (SMILES) | Kb (DNA [2]) | Activity (DNA [3]) | Activity (DNA [4]) | Activity (DNA [5]) | IC50 [1] | IC50 (HeLa) |
| --- | --- | --- | --- | --- | --- | --- |
| CN(C)CCN1C(=O)c2cccc3cc(N)cc(c23)C1=O [AMONAFIDE] | 1.05 ×10⁵ /M | – | – | – | 6.02 µM | 0.68 µM |
